Like-named read-outs stand apart in the source and are kept apart here.
What was measured:
Assay in all cases: microbe, parasite or virus in culture
Settings in all cases: Hepatitis C virus
[1] = tested on: 1a Pi-Rluc replicon with Q30R in genotype 1a NS5A; assay type: cell-based, HCV
Description: Antiviral potency (EC50) was determined using a Renilla luciferase (RLuc)-based HCV replicon reporter assay. […] To perform the assay for genotype 2a (with M31 present in NS5A) or 2b, NS5A chimeric genotype 2a JFH-1 replicons that encodes a RLuc-Neo reporter and either genotype 2a J6 strain NS5A gene or genotype 2b MD2b-1 strain NS5A gene (both with M31 present) respectively, were either transiently transfected (t) into Huh-Lunet cells or were established as stably replicating replicon cells (s) is provided. Either cells were dispensed into 384-well plates for EC50 assays. To perform the assay for genotype 3 and 4, NS5A chimeric genotype 1b Con1 replicons that encodes a Pi-RLuc reporter and either genotype 3a S52 strain NS5A gene or genotype 4a ED43 strain NS5A gene respectively, were transiently transfected (t) into Huh-Lunet cells, which were subsequently dispensed into 384-well plates. Compounds were dissolved in DMSO at a concentration of 10 mM and diluted in DMSO either manually or using an automated pipeting instrument. Serially 3-fold diluted compounds were either manually mixed with cell culture media and added to the seeded cells or directly added to the cells using an automated instrument. […] 72 hours later, cells were lysed and Renilla luciferase activity quantified as recommended by the manufacturer (Promega-Madison, Wis.). Non-linear regression was performed to calculate EC50 values.
To determine the antiviral potency (EC50) against resistance mutants, resistance mutations, including M28T, Q30R, Q30H, L31M, and Y93C in genotype 1a NS5A and Y93H in genotype 1b NS5A, were introduced individually into either 1a Pi-Rluc or 1b Pi-Rluc replicons by site directed mutagenesis. Replicon RNA of each resistant mutant was transiently transfected into Huh-7-derived cured-51 cells and antiviral potency was determined on these transfected cells as described above.

[2] = tested on: stable HCV 1a RLuc replicon cells (genotype 1a H77 replicon); assay type: cell-based
[3] = tested on: NS5A chimeric genotype 1b Con1 replicon with genotype 4a ED43 strain NS5A gene; assay type: cell-based, HCV
[4] = tested on: stable HCV 2a JFH-1 Rluc replicon cells (L31 present in NS5A); assay type: cell-based
[5] = tested on: NS5A chimeric genotype 2a JFH-1 replicon with genotype 2b MD2b-1 strain NS5A gene (M31 present); assay type: cell-based, HCV
In short: (§1)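 Con1 1b replicons carrying 3a S52 or 4a ED43 NS5A with Pi-RLuc reporter were transiently transfected into Huh-Lunet cells; 2b MD2b-1 NS5A (M31) in JFH-1 2a backbone with RLuc-Neo, transient or stable.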

[6] = tested on: NS5A chimeric genotype 2a JFH-1 replicon with genotype 2a J6 strain NS5A gene (M31 present); assay type: cell-based, HCV
[7] = tested on: NS5A chimeric genotype 1b Con1 replicon with genotype 3a S52 strain NS5A gene; assay type: cell-based, HCV
In short: as §1

Compound	EC50 ([1]; read-out: 1a Q30R) [nM]	EC50 ([1]; read-out: 1a Q30R (nM)) [nM]	EC50 ([2]; read-out: 1a) [nM]	EC50 ([2]; read-out: 1a (nM)) [nM]	EC50 ([3]; read-out: 4a) [nM]	EC50 ([3]; read-out: 4a (s) (nM)) [nM]	EC50 ([3]; read-out: 4a (t) (nM)) [nM]	EC50 ([4]; read-out: 2a JFH) [nM]	EC50 ([4]; read-out: 2a JFH (nM)) [nM]	EC50 ([5]; read-out: 2b) [nM]	EC50 ([5]; read-out: 2b (s) (nM)) [nM]	EC50 ([5]; read-out: 2b (t) (nM)) [nM]	EC50 ([6]; read-out: 2a J6) [nM]	EC50 ([6]; read-out: 2a J6 (s) (nM)) [nM]	EC50 ([6]; read-out: 2a Jb (t) (nM)) [nM]	EC50 ([7]; read-out: 3a) [nM]	EC50 ([7]; read-out: 3a (nM)) [nM]
COC(=O)N[C@H](C(=O)N1CCC[C@H]1c1ncc(-c2ccc3c(c2)COc2cc4c(ccc5nc([C@@H]6C[C@H](C)CN6C(=O)[C@@H](NC(=O)OC)C(C)C)[nH]c54)cc2-3)[nH]1)C(C)C [Compound 526]	< 1	0.095	< 1	0.011	< 1	0.011	0.011	< 1	0.007	< 1	0.404	0.132	< 1	1.64	0.443	< 1	0.018
COC(=O)N[C@H](C(=O)N1[C@@H]2C[C@@H]2C[C@H]1c1nc2ccc3cc4c(cc3c2[nH]1)OCc1cc(-c2cnc([C@@H]3CCCN3C(=O)[C@H](NC(=O)OC)c3ccccc3)[nH]2)ccc1-4)C(C)C [Compound 536]	< 1	0.048	< 1	0.008	< 1	0.01	0.005	< 1	0.004	< 1	0.037	0.011	< 1	0.154	0.04	< 1	0.009
COC(=O)N[C@H](C(=O)N1CCC[C@H]1c1ncc(-c2ccc3c(c2)COc2cc4c(ccc5nc([C@@H]6CCCN6C(=O)[C@H](NC(=O)OC)c6ccccc6)[nH]c54)cc2-3)[nH]1)[C@@H](C)OC [Compound 588]	< 1	0.087	< 1	0.012	< 1		0.019	< 1	0.004	< 1	0.017	0.012	< 1	0.14	0.038	< 1	0.027
COC(=O)N[C@H](C(=O)N1[C@@H](C)CC[C@H]1c1ncc(-c2ccc3c(c2)COc2cc4c(ccc5nc([C@@H]6CCCN6C(=O)[C@@H](NC(=O)OC)[C@@H](C)OC)[nH]c54)cc2-3)[nH]1)C(C)C [Compound 603]	< 1	0.146	< 1	0.009	< 1	0.022		< 1	0.007	< 1	0.088	0.067	< 1		0.194	< 1	0.015
COC[C@H]1C[C@@H](c2nc3ccc4cc5c(cc4c3[nH]2)OCc2cc(-c3cnc([C@@H]4CCCN4C(=O)[C@H](NC(=O)OC)c4ccccc4)[nH]3)ccc2-5)N(C(=O)[C@@H](NC(=O)OC)C(C)C)C1 [Example MM, methyl {(1R)-2-[(2S)-2-(5-{2-[(2S,4S)-1-{(2S)-2-[(methoxycarbonyl)amino]-3-methylbutanoyl}-4-(methoxymethyl)pyrrolidin-2-yl]-1,11-dihydroisochromeno[4′,3′:6,7]naphtho[1,2-d]imidazol-9-yl}-1H-imidazol-2-yl)pyrrolidin-1-yl]-2-oxo-1-phenylethyl}carbamate]	< 1	0.044	< 1	0.022	< 1	0.016	0.017	< 1	0.007	< 1	0.042	0.015	< 1	0.064	0.018	< 1	0.02
COC[C@@H]1C[C@@H](c2nc3ccc4cc5c(cc4c3[nH]2)OCc2cc(-c3cnc([C@@H]4CCCN4C(=O)[C@@H](NC(=O)OC)C(C)C)[nH]3)ccc2-5)N(C(=O)[C@H](NC(=O)OC)c2ccccc2)C1 [Example MQ, methyl{(1R)-2-[(2S,4R)-2-(9-{2-[(2S)-1-{(2S)-2-[(methoxycarbonyl)amino]-3-methylbutanoyl}pyrrolidin-2-yl)-1H-imidazol-5-yl]-1,11-dihydroisochromeno[4′,3′:6,7]naphtho[1,2-d]imidazol-2-yl}-4-(methoxymethyl)pyrrolidin-1-yl]-2-oxo-phenylethyl}carbamate]	< 1	0.023	< 1	0.008	< 1		0.011	< 1	0.004	< 1	0.023	0.009	< 1	0.095	0.017	< 1	0.016
COC[C@H]1C[C@@H](c2nc3c([nH]2)-c2cc4c(cc2CC3)-c2ccc(-c3cnc([C@@H]5CCCN5C(=O)[C@@H](NC(=O)OC)C(C)C)[nH]3)cc2CO4)N(C(=O)[C@H](NC(=O)OC)c2ccccc2)C1 [Example MR, methyl{(1R)-2-[(2S,4S)-2-(9-{2-[(2S)-1-{(2S)-2-[(methoxycarbonyl)amino]-3-methylbutanoyl}pyrrolidin-2-yl)-1H-imidazol-5-yl]-1,11-dihydroisochromeno[4′,3′:6,7]-4,5-dihydro-naphtho[1,2-d]imidazol-2-yl}-(methoxymethyl)pyrrolidin-1-yl]-2-oxo-1-phenylethyl}carbamate]	< 1	0.128	< 1	0.028	< 1		0.045	< 1	0.017	< 1	0.053	0.039	< 1	0.176	0.079	< 1	0.078
COC[C@H]1C[C@@H](c2ncc(-c3ccc4c(c3)COc3cc5c(ccc6nc([C@@H]7CCCN7C(=O)[C@@H](NC(=O)OC)C(C)C)[nH]c65)cc3-4)[nH]2)N(C(=O)[C@H](NC(=O)OC)c2ccccc2)C1 [Example MU, methyl{(1R)-2-[(2S,4S)-2-(5-{2-[(2S)-1-{(2S)-2-[(methoxycarbonyl)amino]-3-methylbutanoyl}-pyrrolidin-2-yl]-1,11-dihydroisochromeno[4′,3′:6,7]naphtho[1,2-d]imidazol-9-yl}-1H-imidazol-2-yl)-4-(methoxymethyl)pyrrolidin-1-yl]-2-oxo-1-phenylethyl}carbamate]	< 1	0.023	< 1	0.008	< 1		0.011	< 1	0.004	< 1	0.025	0.009	< 1	0.046	0.013	< 1	0.017
COC(=O)N[C@H](C(=O)N1CCC[C@H]1c1ncc(-c2ccc3c(c2)COc2cc4c(ccc5nc([C@@H]6C[C@H](C)CN6C(=O)[C@H](NC(=O)OC)c6ccccc6)[nH]c54)cc2-3)[nH]1)C(C)C [Example MY, Methyl {2-[2-{9-[2-(1-{2-[(methoxycarbonyl)amino]-3-methylbutanoyl}pyrrolidin-2-yl)-1H-imidazol-5-yl]-1,11-dihydroisochromeno[4′,3′:6,7]naphtho[1,2-d]imidazol-2-yl}-4-(methyl)pyrrolidin-1-yl]-2-oxo-1-phenylethyl}carbamate]	< 1	0.024	< 1	0.016	< 1	0.02	0.008	< 1	0.005	< 1	0.047	0.016	< 1	0.165	0.047	< 1	0.01

Reference: patent US8575135B2 (Gilead Sciences, Inc., priority 2011, dated 2013)
